Measurements reported in patent US20100160454A1, “ANTIMICROBIAL AGENTS, COMPOSITIONS AND PRODUCTS CONTAINING THE SAME, AND METHODS OF USING THE COMPOSITIONS AND PRODUCTS” (Eastman Chemical Company, priority 2008, published 2010).

Key:
Test in all cases: Microbiological challenge testing in BPW broth, graded subculture counts
Assay type in all cases: cell-based
[1] = test system: Candida albicans Wild type; details: C. albicans
Method: The microorganisms in the table below were used in challenge tests. They were either ATCC (American Type Culture Collection) or “wild type” as indicated. Wild type organisms were problematic organisms previously isolated from chemical products.
All of the microorganisms were grown in Tryptose Soy Broth (TSB), DIFCO™ available from Becton, Dickinson and Company, containing 1% dextrose. Candida albicans and Aspergillus niger, were incubated at 22° C.+/−2° C. for at least 96 hours. All bacteria were incubated at 35° C.+/−2° C. in a humidified incubator for at least 96 hours.
Candida albicans and Aspergillus niger were also grown on Sabouraud Dextrose Agar (SABD) at 22° C. for 7 to 14 days or until full sporulation was achieved.
The following procedure was followed to determine the amount of each challenge material (inoculum broth) needed to produce a 10^8 CFU/mL challenge, which is equivalent to a final test-sample microbial concentration of 10^5 to 10^6 CFU/mL (CFU=colony forming units).
Using a sterile pipette, 1 mL of the growth from each TSB culture was transferred into tubes of 9 mL buffered water (pH 7.2 phosphate buffer) and mixed thoroughly. This was repeated to make serial 1:10 dilutions. Then, 0.1 mL of each sample and dilution was inoculated onto agar plates to produce the equivalent of a further 1:10 dilution. (C. albicans and A. niger were inoculated onto SABD and bacteria were inoculated onto Plate Count Agar (PCA), DIFCO™ available from Becton, Dickinson and Company.) (The normal volume plated for most samples was 0.1 mL. Some samples that could be very low in micro-organisms (high dilutions) were plated using 0.5 mL of inoculum, in order to produce reproducible counts.) The samples were distributed on the plates using the spread-plate technique. The spread-plate technique is carried out by spreading the sample over the entire plate surface using a sterile spreading rod while rotating the plate with a rotary auto-plater. After the inoculum was absorbed completely by the agar, each plate was inverted and incubated (fungi at 22° C.+/−2° C. and bacteria at 35° C.+/−2° C.).
After incubation for at least 48 hours, colonies that had developed on the agar plates were counted (CFU) and recorded with the corresponding dilution. If counting had to be delayed temporarily, plates were refrigerated, preferably no more than 24 hours, until they could be counted. The number of CFU/mL was determined by multiplying the plate count by the dilution factor of the plate counted.
Turbidity in Nepholemetric Turbidity Units (NTU) was measured for each serial dilution using the HF-Micro 100 Model Turbidimeter. For each microorganism, the plate counts were compared to the turbidity readings.
On the day of challenge, the Candida albicans inoculum broth was poured through nonabsorbent sterile gauze and centrifuged. The […] was then diluted with buffered water (pH 7.2 phosphate buffer) until the desired turbidity was reached. Using a hemocytometer, a determination was made whether the challenge contained the desired concentration. Dilutions were made through 1.0×10^8 and three SABD spread plates were inoculated with 0.1 mL of each dilution. The plates were incubated for at least 48 hours and challenge counts were confirmed.
Control substrates (“broth alone”) were prepared for each microorganism separately in triplicate by adding 13.5 mL of Buffered Peptone Water broth (BPW) containing 1% dextrose to each 20-mL glass tube, then adding 1.5 mL challenge material to produce a final concentration at time zero of 10^5 to 10^6 CFU/mL and a total volume of 15 mL.

[2] = test system: Pseudomonas aeruginosa Wild type; details: P. aeruginosa
Procedure, shortened: (§1)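 Serial 1:10 dilutions were made in pH 7.2 phosphate buffer and spread-plated onto PCA, and colonies were counted after 48 h or more at 35 °C. In the challenge, BPW–dextrose tubes containing the test material received inoculum at 10^5–10^6 CFU/mL at time zero. Controls without test material served as reference.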

[3] = test system: Staphylococcus epidermidis ATCC 12228
Procedure, shortened: as §1

[4] = test system: Proteus vulgaris Wild type
Procedure, shortened: as §1

[5] = test system: Bacillus subtilis Wild type
Procedure, shortened: as §1

SMILES: OCC1CCCCC1CO (stereo not drawn) [1,2-CHDM, 1,2-cyclohexanedimethanol]
- Grade ([1]; 0.5% (wt/vol), 3 day): 4 (1000 to 10,000 colonies countable (thus 10,000 CFU/mL to 100,000 CFU/mL))
- Grade ([1]; 0.5% (wt/vol), 14 day): 4 (1000 to 10,000 colonies countable (thus 10,000 CFU/mL to 100,000 CFU/mL))
- Grade ([1]; 0.5% (wt/vol), 30 day): 4 (1000 to 10,000 colonies countable (thus 10,000 CFU/mL to 100,000 CFU/mL))
- Grade ([1]; 1.25% (wt/vol), 3 day): 4 (1000 to 10,000 colonies countable (thus 10,000 CFU/mL to 100,000 CFU/mL))
- Grade ([1]; 1.25% (wt/vol), 14 day): 4 (1000 to 10,000 colonies countable (thus 10,000 CFU/mL to 100,000 CFU/mL))
- Grade ([1]; 1.25% (wt/vol), 30 day): 4 (1000 to 10,000 colonies countable (thus 10,000 CFU/mL to 100,000 CFU/mL))
- Grade ([1]; 2.5% (wt/vol), 3 day): 0
- Grade ([1]; 2.5% (wt/vol), 14 day): 0
- Grade ([1]; 2.5% (wt/vol), 30 day): 0
- Grade ([1]; 5.0% (wt/vol), 3 day): 0
- Grade ([1]; 5.0% (wt/vol), 14 day): 0
- Grade ([1]; 5.0% (wt/vol), 30 day): 0
- Grade ([2]; 0.5% (wt/vol), 3 day): 4 (1000 to 10,000 colonies countable (thus 10,000 CFU/mL to 100,000 CFU/mL))
- Grade ([2]; 0.5% (wt/vol), 13 day): 4 (1000 to 10,000 colonies countable (thus 10,000 CFU/mL to 100,000 CFU/mL))
- Grade ([2]; 0.5% (wt/vol), 30 day): 4 (1000 to 10,000 colonies countable (thus 10,000 CFU/mL to 100,000 CFU/mL))
- Grade ([2]; 1.25% (wt/vol), 3 day): 2.7
- Grade ([2]; 1.25% (wt/vol), 13 day): 1 (0 to 51 colonies counted (thus 10 to 510 CFU/mL based on 0.1-mL sample))
- Grade ([2]; 1.25% (wt/vol), 30 day): 3 (100 to 1000 colonies (thus 1000 to 10,000 CFU/mL))
- Grade ([2]; 2.5% (wt/vol), 3 day): 1 (0 to 51 colonies counted (thus 10 to 510 CFU/mL based on 0.1-mL sample))
- Grade ([2]; 2.5% (wt/vol), 13 day): 0
- Grade ([2]; 2.5% (wt/vol), 30 day): 0
- Grade ([2]; 5.0% (wt/vol), 3 day): 0
- Grade ([2]; 5.0% (wt/vol), 13 day): 0
- Grade ([2]; 5.0% (wt/vol), 30 day): 0
- S. epidermidis growth grade, 3 day ([3]; 0.5% weight/volume): 4 (1000 to 10,000 colonies countable (thus 10,000 CFU/mL to 100,000 CFU/mL))
- S. epidermidis growth grade, 13 day ([3]; 0.5% weight/volume): 3 (100 to 1000 colonies (thus 1000 to 10,000 CFU/mL))
- S. epidermidis growth grade, 30 day ([3]; 0.5% weight/volume): 4 (1000 to 10,000 colonies countable (thus 10,000 CFU/mL to 100,000 CFU/mL))
- S. epidermidis growth grade, 3 day ([3]; 1.25% weight/volume): 2.3
- S. epidermidis growth grade, 13 day ([3]; 1.25% weight/volume): 1 (0 to 51 colonies counted (thus 10 to 510 CFU/mL based on 0.1-mL sample))
- S. epidermidis growth grade, 30 day ([3]; 1.25% weight/volume): 3 (100 to 1000 colonies (thus 1000 to 10,000 CFU/mL))
- S. epidermidis growth grade, 3 day ([3]; 2.5% weight/volume): 0
- S. epidermidis growth grade, 13 day ([3]; 2.5% weight/volume): 0
- S. epidermidis growth grade, 30 day ([3]; 2.5% weight/volume): 0
- S. epidermidis growth grade, 3 day ([3]; 5.0% weight/volume): 0
- S. epidermidis growth grade, 13 day ([3]; 5.0% weight/volume): 0
- S. epidermidis growth grade, 30 day ([3]; 5.0% weight/volume): 0
- P. vulgaris growth grade, 3 day ([4]; 0.5% weight/volume): 4 (1000 to 10,000 colonies countable (thus 10,000 CFU/mL to 100,000 CFU/mL))
- P. vulgaris growth grade, 13 day ([4]; 0.5% weight/volume): 4 (1000 to 10,000 colonies countable (thus 10,000 CFU/mL to 100,000 CFU/mL))
- P. vulgaris growth grade, 30 day ([4]; 0.5% weight/volume): 4 (1000 to 10,000 colonies countable (thus 10,000 CFU/mL to 100,000 CFU/mL))
- P. vulgaris growth grade, 3 day ([4]; 1.25% weight/volume): 2.3
- P. vulgaris growth grade, 13 day ([4]; 1.25% weight/volume): 1 (0 to 51 colonies counted (thus 10 to 510 CFU/mL based on 0.1-mL sample))
- P. vulgaris growth grade, 30 day ([4]; 1.25% weight/volume): 0
- P. vulgaris growth grade, 3 day ([4]; 2.5% weight/volume): 1 (0 to 51 colonies counted (thus 10 to 510 CFU/mL based on 0.1-mL sample))
- P. vulgaris growth grade, 13 day ([4]; 2.5% weight/volume): 0
- P. vulgaris growth grade, 30 day ([4]; 2.5% weight/volume): 0
- P. vulgaris growth grade, 3 day ([4]; 5.0% weight/volume): 0
- P. vulgaris growth grade, 13 day ([4]; 5.0% weight/volume): 0
- P. vulgaris growth grade, 30 day ([4]; 5.0% weight/volume): 0
- B. subtillis growth grade, 3 day ([5]; 0.5% weight/volume): 4 (1000 to 10,000 colonies countable (thus 10,000 CFU/mL to 100,000 CFU/mL))
- B. subtillis growth grade, 14 day ([5]; 0.5% weight/volume): 3 (100 to 1000 colonies (thus 1000 to 10,000 CFU/mL))
- B. subtillis growth grade, 30 day ([5]; 0.5% weight/volume): 4 (1000 to 10,000 colonies countable (thus 10,000 CFU/mL to 100,000 CFU/mL))
- B. subtillis growth grade, 3 day ([5]; 1.25% weight/volume): 2 (52 to 100 colonies counted (thus 520 to 1000 CFU/mL))
- B. subtillis growth grade, 14 day ([5]; 1.25% weight/volume): 1 (0 to 51 colonies counted (thus 10 to 510 CFU/mL based on 0.1-mL sample))
- B. subtillis growth grade, 30 day ([5]; 1.25% weight/volume): 1 (0 to 51 colonies counted (thus 10 to 510 CFU/mL based on 0.1-mL sample))
- B. subtillis growth grade, 3 day ([5]; 2.5% weight/volume): 0
- B. subtillis growth grade, 14 day ([5]; 2.5% weight/volume): 0
- B. subtillis growth grade, 30 day ([5]; 2.5% weight/volume): 0
- B. subtillis growth grade, 3 day ([5]; 5.0% weight/volume): 0
- B. subtillis growth grade, 14 day ([5]; 5.0% weight/volume): 0
- B. subtillis growth grade, 30 day ([5]; 5.0% weight/volume): 0
